# Experimental data reported in patent publication US20190022114A1, “METHODS AND COMPOSITIONS FOR REDUCING BODY WEIGHT AND INCREASING GUT MOTILITY” (priority 2016, published 2019).
# How the values were obtained:
# [1] = system: LEPR (Leptin Receptor) mutants; assay: Weight loss and fat loss effect of D-ribose in mouse obesity model; type: in vivo; settings: 48 days
# Description: Classic obesity model LEPR (Leptin Receptor) mutants (Age 42 day, male) and wild-type FVB strain mice were used in the testing.
# D-ribose was feed to mice in D-ribose water solution at concentrations indicated (75 mg/ml and 50 mg/ml). Control animals were feed with water. All animals were fed on normal diet. There was no restriction on the amount of liquid or food consumption.
# The liquid and food consumption were measured at 4 day intervals. The actual D-ribose consumption for each animal was calculated based on its liquid intake volume.
# Mouse body fat was measured using MiniSpec NMR Analyzer.
# P-values were calculated using t-test (unpaired, 2 tails) for data points after 48 days of treatment.
# Test results were shown in FIG. 1 and FIG. 2, wherein Square (▪) represents the treatment group, and Circle (●) represents control group. Classic obesity model LEPR (Leptin Receptor) mutants (Age 42 day, male) were used in the testing. The control group was fed with water. Animals were fed on normal diet.
# C57BL/6 mice = assay: Whole gut transit time (carmine gavage); type: in vivo, mouse; settings: 0.5 ml 75 mg/ml oral gavage, p value=0.004
# Description: D-ribose was administered to C57BL/6 mice of 8 weeks old. Before administering, mice were fasted for 18 hours with free access to water and housed on a mesh plate without bedding. The mice were orally fed with 0.5 ml carmine solution (6% carmine in 0.5% methylcellulose) containing either 75 mg/ml D-ribose or xylose. After oral force gavage, mice were returned to individually housed mesh bottom cages, which were placed on a white sheet. Whole gut transit time is the time taken from carmine meal gavage to the appearance of the first red fecal pellets.
# Wistar rats = settings: 13 weeks, cited from earlier work
smiles,measurement,setting,value
O=C[C@H](O)[C@H](O)[C@H](O)CO [D-ribose],fat gain (body fat measurement),"[1]; 50 mg/ml in water, 20.59 gram/kg/day, data not shown",reduced fat gain but not statistically significant
same,weight gain vs control animals,"[1]; 50 mg/ml in water, 20.59 gram/kg/day, obese LEPR mutant male mice, p-value 0.001",statistically significantly decreased weight gain
same,body fat (NMR) vs control animals,"[1]; 75 mg/ml in water, 30.03 gram/kg/day, obese LEPR mutant male mice, p-value 0.00015",fat loss
same,body weight vs control animals,"[1]; 75 mg/ml in water, 30.03 gram/kg/day, obese LEPR mutant male mice, p-value 0.01",statistically significant weight loss
same,gut transition time vs xylose control,C57BL/6 mice,shortened gut transition time
same,"NOAEL, females","Wistar rats; female rats, 5% in diet",4.4 g/kg body weight/day
same,"NOAEL, males","Wistar rats; male rats, 5% in diet",3.6 g/kg body weight/day
same,"no observed adverse effect level (NOAEL), concentration in the diet","Wistar rats; rats, in diet",5%
same,effect at up to 20% of diet,"Wistar rats; rats, up to 20% of diet (15.0 and 15.7 g/kg body weight/day males and females)",nutritional but not toxicological effect
